Values after ≈ are worked out from the molar mass of the structure shown.
What was measured:
[1] = test system: Bacillus subtilis; test: Antibacterial activity against Bacillus subtilis 6633 incubated for 16 to 18 hrs by broth dilution assay; assay type: functional; settings: time 16-18 hrs
[2] = Retention time of compound by RP-HPLC method; assay type: physicochemical
[3] = test system: Escherichia coli; test: Antibacterial activity against Escherichia coli ATCC 25922 incubated for 16 to 18 hrs by broth dilution assay; assay type: functional; settings: time 16-18 hrs
[4] = test system: Klebsiella pneumoniae; test: Antibacterial activity against Klebsiella pneumoniae ATCC 27736 incubated for 16 to 18 hrs by broth dilution assay; assay type: functional; settings: time 16-18 hrs
[5] = test system: Pseudomonas aeruginosa; test: Antibacterial activity against Pseudomonas aeruginosa ATCC BAA-427 incubated for 16 to 18 hrs by broth dilution assay; assay type: functional; settings: time 16-18 hrs
[6] = test system: Staphylococcus aureus; test: Antibacterial activity against methicillin-resistant Staphylococcus aureus BAA-44 incubated for 16 to 18 hrs by broth dilution assay; assay type: functional; settings: time 16-18 hrs
[7] = Hemolytic activity in human RBC measured after 40 mins by absorbance based assay; assay type: toxicity, cell-based, Erythrocyte; settings: human red blood cells
[8] = test system: Staphylococcus aureus; test: Antibacterial activity against methicillin-resistant Staphylococcus aureus 33591 incubated for 16 to 18 hrs by broth dilution assay; assay type: functional; settings: time 16-18 hrs
[9] = test system: Staphylococcus aureus; test: Antibacterial activity against Staphylococcus aureus ATCC 25923 incubated for 16 to 18 hrs by broth dilution assay; assay type: functional; settings: time 16-18 hrs
[10] = Hemolytic activity in human RBC at 100 uM measured after 40 mins by absorbance based assay relative to control; assay type: toxicity, cell-based, Erythrocyte; settings: human red blood cells, read-out: Activity
[11] = test system: Mycolicibacterium smegmatis; test: Antitubercular activity against Mycobacterium smegmatis incubated for 24 hrs by rezasurin dye based assay; assay type: functional

H-VLGRVLGRVLGR-OH
MIC [1]: > 155 µM
Retention_time [2]: 15.4 min
MIC [3]: > 155 µM
MIC [4]: > 155 µM
MIC [5]: > 155 µM
MIC [6]: > 155 µM
HC50 at 40 min [7]: 2 mM
MIC [8]: > 155 µM
MIC [9]: > 155 µM

H-GRLVGRLVGRLV-OH
MIC [1]: > 155 µM
Retention_time [2]: 13.4 min
MIC [3]: 155 µM
MIC [4]: 155 µM
MIC [5]: 155 µM
MIC [6]: > 155 µM
HC50 at 40 min [7]: 2 mM
MIC [8]: > 155 µM
MIC [9]: > 155 µM

H-LGRLVLGRLV-OH
MIC [1]: > 183 µM
Retention_time [2]: 16.21 min
MIC [3]: 91.4 µM
MIC [4]: > 183 µM
MIC [5]: > 183 µM
MIC [6]: > 183 µM
HC50 at 40 min [7]: 2 mM
MIC [8]: > 183 µM
MIC [9]: 183 µM

H-KVLGRKVLGR-OH
MIC [1]: > 178 µM
Retention_time [2]: 10.61 min
MIC [3]: 178 µM
MIC [4]: > 178 µM
MIC [5]: > 178 µM
MIC [6]: > 178 µM
HC50 at 40 min [7]: 2 mM
MIC [8]: > 178 µM
MIC [9]: 178 µM

H-RLRLRLRLRLRLRL-OH
MIC [1]: 3.3 µM
Retention_time [2]: 16.72 min
MIC [3]: 3.3 µM
hemolysis at 40 min, 100 µM [10]: 20%
MIC [4]: 26.2 µM
MIC [5]: 13.1 µM
MIC [6]: 13.1 µM
HC50 at 40 min [7]: 0.249 mM
MIC [8]: 13.1 µM
MIC [9]: 3.3 µM

H-KVLGRLKVLGRL-OH
MIC [1]: > 147 µM
Retention_time [2]: 16.81 min
MIC [3]: 74 µM
MIC [4]: > 147 µM
MIC [5]: > 147 µM
MIC [6]: > 147 µM
HC50 at 40 min [7]: 2 mM
MIC [8]: > 147 µM
MIC [9]: > 147 µM

H-KVKVKVKVKV-OH
MIC [1]: 10.9 µM
Retention_time [2]: 10.88 min
MIC [3]: 21.7 µM
hemolysis at 40 min, 100 µM [10]: 18%
MIC [4]: 43.4 µM
MIC [5]: 21.7 µM
MIC [6]: 21.7 µM
HC50 at 40 min [7]: 0.283 mM
MIC [8]: 43.4 µM
MIC [9]: 21.7 µM

H-LGRLVLGRLVLGRLV-OH
MIC [1]: > 122 µM
Retention_time [2]: 18.77 min
MIC [3]: 7.6 µM
MIC [4]: > 122 µM
MIC [5]: > 122 µM
MIC [6]: 61.2 µM
HC50 at 40 min [7]: 2 mM
MIC [8]: > 122 µM
MIC [9]: 15.3 µM

H-VLGRLVLGRL-OH
MIC [1]: > 183 µM
Retention_time [2]: 16.21 min
MIC [3]: 183 µM
MIC [4]: 183 µM
MIC [5]: 183 µM
MIC [6]: > 183 µM
HC50 at 40 min [7]: 2 mM
MIC [8]: > 183 µM
MIC [9]: 183 µM

H-KVKVKVKVKVKVKV-OH
MIC [1]: 3.8 µM
Retention_time [2]: 10.73 min
MIC [3]: 7.8 µM
hemolysis at 40 min, 100 µM [10]: 80%
MIC [4]: 7.8 µM
MIC [5]: 31.1 µM
MIC [6]: 15.5 µM
HC50 at 40 min [7]: 0.062 mM
MIC [8]: 15.5 µM
MIC [9]: 7.8 µM

H-VLGRLVVLGRLV-OH
MIC [1]: > 155 µM
Retention_time [2]: 17.91 min
MIC [3]: 77.4 µM
MIC [4]: > 155 µM
MIC [5]: > 155 µM
MIC [6]: > 155 µM
HC50 at 40 min [7]: 2 mM
MIC [8]: > 155 µM
MIC [9]: > 155 µM

H-LGRLGRLGRLGRLGR-OH
MIC [1]: 30.3 µM
Retention_time [2]: 16.23 min
MIC [3]: 1.9 µM
MIC [4]: > 121 µM
MIC [5]: 60.6 µM
MIC [6]: 60.6 µM
HC50 at 40 min [7]: 2 mM
MIC [8]: > 121 µM
MIC [9]: 1.9 µM

CO[C@H]1/C=C/O[C@@]2(C)Oc3c(C)c(O)c4c(O)c(c(/C=N/N5CCN(C)CC5)c(O)c4c3C2=O)NC(=O)/C(C)=C\C=C\[C@H](C)[C@H](O)[C@@H](C)[C@@H](O)[C@@H](C)[C@H](OC(C)=O)[C@@H]1C [RIFAMPIN]
MIC [11]: 0.25 µM (≈ 0.206 µg/mL)

H-VLGRLVLGRLVLGRL-OH
MIC [1]: > 122 µM
Retention_time [2]: 19.07 min
MIC [3]: 7.6 µM
MIC [4]: > 122 µM
MIC [5]: > 122 µM
MIC [6]: 61.2 µM
HC50 at 40 min [7]: 2 mM
MIC [8]: 122 µM
MIC [9]: 7.6 µM

CC1(C)S[C@@H]2[C@H](NC(=O)[C@H](N)c3ccccc3)C(=O)N2[C@H]1C(=O)O [AMPICILLIN]
MIC [1]: 1.6 µM (≈ 0.559 µg/mL)
MIC [3]: 12.5 µM (≈ 4.37 µg/mL)
MIC [4]: 100 µM (≈ 34.9 µg/mL)
MIC [5]: 25 µM (≈ 8.74 µg/mL)
MIC [6]: 25 µM (≈ 8.74 µg/mL)
MIC [8]: 12.5 µM (≈ 4.37 µg/mL)
MIC [9]: 3.1 µM (≈ 1.08 µg/mL)

H-KVLGKVLGKVLG-OH
MIC [1]: > 165 µM
Retention_time [2]: 15.26 min
MIC [3]: > 165 µM
MIC [4]: > 165 µM
MIC [5]: > 165 µM
MIC [6]: > 165 µM
HC50 at 40 min [7]: 2 mM
MIC [8]: > 165 µM
MIC [9]: > 165 µM

H-LGRLGRLGRLGR-OH
MIC [1]: 151 µM
Retention_time [2]: 20.45 min
MIC [3]: 15.5 µM
MIC [4]: > 151 µM
MIC [5]: > 151 µM
MIC [6]: > 151 µM
HC50 at 40 min [7]: 2 mM
MIC [8]: > 151 µM
MIC [9]: > 151 µM

H-KVKVKVKVKVKV-OH
MIC [1]: 9.1 µM
Retention_time [2]: 10.81 min
MIC [3]: 18.1 µM
hemolysis at 40 min, 100 µM [10]: 42%
MIC [4]: 72.4 µM
MIC [5]: 36.2 µM
MIC [6]: 18.1 µM
HC50 at 40 min [7]: 0.118 mM
MIC [8]: 36.2 µM
MIC [9]: 36.2 µM

H-GRLGRLGRLGRL-OH
MIC [1]: 18.9 µM
Retention_time [2]: 20.87 min
MIC [3]: 18.9 µM
MIC [4]: > 151 µM
MIC [5]: 75.6 µM
MIC [6]: 18.9 µM
HC50 at 40 min [7]: 2 mM
MIC [8]: 18.9 µM
MIC [9]: 4.7 µM

H-KVLGRKVLGRKVLGR-OH
MIC [1]: > 119 µM
Retention_time [2]: 11.73 min
MIC [3]: 29.8 µM
MIC [4]: > 119 µM
MIC [5]: > 119 µM
MIC [6]: > 119 µM
HC50 at 40 min [7]: 2 mM
MIC [8]: > 119 µM
MIC [9]: 29.8 µM

H-LGRLLGRLLGRLLGRL-OH
MIC [1]: 1.8 µM
Retention_time [2]: 20.87 min
MIC [3]: 1.8 µM
hemolysis at 40 min, 100 µM [10]: 95%
MIC [4]: 1.8 µM
MIC [5]: 3.5 µM
MIC [6]: 1.8 µM
HC50 at 40 min [7]: 0.051 mM
MIC [8]: 1.8 µM
MIC [9]: 1.8 µM

H-RLRLRLRLRLRL-OH
MIC [1]: 3.8 µM
Retention_time [2]: 15.99 min
MIC [3]: 1.9 µM
hemolysis at 40 min, 100 µM [10]: 17%
MIC [4]: 30.6 µM
MIC [5]: 15.3 µM
MIC [6]: 15.3 µM
HC50 at 40 min [7]: 0.279 mM
MIC [8]: 15.3 µM
MIC [9]: 3.8 µM
